Measured values reported in patent US20240360154A1, “AROYL SUBSTITUTED TRICYCLIC COMPOUND, PREPARATION METHOD THEREFOR AND USE THEREOF” (GENFLEET THERAPEUTICS (SHANGHAI) INC., priority 2020, published 2024).

Key:
OCI-LY10 cells = test: OCI-LY10 proliferation inhibition experiment; format: cell-based; conditions: human diffuse large B lymphoma cells, three days incubation
Experimental: TMD-8 cells are human diffuse large B lymphoma (Mingzhou Bio, MZ-0832), cultured in 10% FBS+1% PS 1640 medium; OCI-LY10 is human diffuse large B lymphoma (BeNa Culture Collection, BNCC337742), cultured in 10% FBS+1% PS IMDM. Day 1: Cells at logarithmic growth phase were taken, counted and inoculated 600 TMD-8 or 2000 OCI-LY10 cells in a 384-well cell culture plate and cultured overnight. Day 2: A 3-fold gradient concentration stock solution of 400× compound was prepared with DMSO, and diluted 40-fold to a 10× compound stock solution with culture medium. The 10× compound stock solution was added to each cell culture well with a final concentration of 1× compound stock solution and a DMSO content of 0.25%. DMSO was used as experimental control, and culture medium was used as blank control. The incubation was continued for three days after compound addition. On the fifth day, 25 μL of […] was added to each well, mixed well and incubated for 10 minutes, then the chemiluminescence value (RLU value) was read. The cell proliferation inhibition rate (%)=(RLUcontrol−RLUcompound)/(RLUcontrol−RLUblank)×100% was calculated. The compound gradient dilution concentration and the corresponding cell proliferation inhibition rate were fit by using XLFit four-parameter method, and IC50 value was calculated.

TMD-8 cells = test: TMD-8 proliferation inhibition experiment; format: cell-based; conditions: human diffuse large B lymphoma cells, three days incubation
Procedure, shortened: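 Log-phase cells seeded in 384-well plates (600 TMD-8 in RPMI 1640, 2000 OCI-LY10 in IMDM, both 10% FBS), then exposed one day later to 3-fold compound dilutions at 0.25% DMSO for three days. ADP-Glo luminescence read; inhibition versus DMSO and medium-only blank, IC50 by four-parameter fit.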

p-BTK (C481S) = p-BTK (C481S) (Homo sapiens (Human), UniProt Q06187, C481S); test: p-BTK cell experiment, HEK293 transfected with C481S-BTK plasmid (P-BTK Y223 sandwich ELISA); format: cell-based; conditions: HEK293 cells, compound cultured for two hours
Experimental: (§1) Day 1: HEK293 cells (ADDEXBIO, T0011001) at logarithmic growth phase were taken, digested with enzyme EDTA, collected and counted, and 2E6 cells were inoculated in a 10 cm culture dish and cultured overnight. Day 2: A mixed solution containing 6 μg of WT-BTK/C481S-BTK plasmid and 18 μL of FuGENE HD transfection reagent was prepared by using 1000 μL of Opti-MEM. After standing at room temperature for 10 minutes, the mixed solution was slowly added to the culture dish with a pipettor and cultured overnight. Day 3: The culture dish was taken out, and the cells were digested with enzyme EDTA, collected and counted, and 1E4 cells were inoculated in a 96-well cell culture plate and cultured overnight. A 3.16-fold gradient concentration stock solution of 1000× compound was prepared using DMSO, and placed at room temperature. Day 4: A prepared 1000× compound stock solution was taken, and diluted 200-fold to 5× compound stock solution with culture medium. 5× compound stock solution was added to each cell culture well with a final concentration of 1× compound stock solution and a DMSO content of 0.1%. DMSO was used as an experimental control. After the compound was added and cultured for two hours, the residual culture medium was removed. 100 μL of cell lysis buffer was added to each well, stood on ice for 30 minutes, and ultrasonically lysed with ice water for 5 minutes. After diluting the cell lysate in proportion, 80 μL of the mixture was transfer to an ELISA plate, and 80 μL of cell lysis buffer was added to the blank well. After incubating in an incubator at 37° C. for 2 hours, the plate was taken and the antibody incubation and color development termination operation were completed according to the instructions of Pathscan P-BTK (Y223) Sandwich ELISA Kit (Cell Signaling #23843 CA), and finally the OD value was read. The inhibition rate of the compound (%)=(ODcontrol−ODcompound)/(ODcontrol−ODblank)×100% was calculated. The compound gradient dilution concentration and the corresponding cell proliferation inhibition rate were fit by using Prism 8 four-parameter method, and IC50 value was calculated.

BTK = BTK (Homo sapiens (Human), UniProt Q06187); test: BTK enzyme experiment (ADP-Glo kinase assay); format: biochemical; conditions: 10 nM BTK, ATP 125 μM, Poly(Glu4, Tyr1), 90 minutes at 20° C.; read-out: BTK(WT) IC50
Procedure, shortened: (§2)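 Wild-type or C481S BTK, added as 2× solution at 10 nM, preincubated 10 min with 3-fold compound dilutions in 50 mM HEPES pH 7.5, 10 mM MgCl2, 2 mM DTT, 0.0015% Brij-35. ADP-Glo luminescence norm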

BTK (C481S) = BTK (C481S) (Homo sapiens (Human), UniProt Q06187, C481S); test: BTK C481S enzyme experiment (ADP-Glo kinase assay); format: biochemical; conditions: 10 nM BTK C481S, ATP 125 μM, Poly(Glu4, Tyr1), 90 minutes at 20° C.
Procedure, shortened: as §2

p-BTK (WT) = p-BTK (WT) (Homo sapiens (Human), UniProt Q06187); test: p-BTK cell experiment, HEK293 transfected with WT-BTK plasmid (P-BTK Y223 sandwich ELISA); format: cell-based; conditions: HEK293 cells, compound cultured for two hours
Experimental: as §1

Chain of p-BTK (C481S) (Q06187 whole entry C481S): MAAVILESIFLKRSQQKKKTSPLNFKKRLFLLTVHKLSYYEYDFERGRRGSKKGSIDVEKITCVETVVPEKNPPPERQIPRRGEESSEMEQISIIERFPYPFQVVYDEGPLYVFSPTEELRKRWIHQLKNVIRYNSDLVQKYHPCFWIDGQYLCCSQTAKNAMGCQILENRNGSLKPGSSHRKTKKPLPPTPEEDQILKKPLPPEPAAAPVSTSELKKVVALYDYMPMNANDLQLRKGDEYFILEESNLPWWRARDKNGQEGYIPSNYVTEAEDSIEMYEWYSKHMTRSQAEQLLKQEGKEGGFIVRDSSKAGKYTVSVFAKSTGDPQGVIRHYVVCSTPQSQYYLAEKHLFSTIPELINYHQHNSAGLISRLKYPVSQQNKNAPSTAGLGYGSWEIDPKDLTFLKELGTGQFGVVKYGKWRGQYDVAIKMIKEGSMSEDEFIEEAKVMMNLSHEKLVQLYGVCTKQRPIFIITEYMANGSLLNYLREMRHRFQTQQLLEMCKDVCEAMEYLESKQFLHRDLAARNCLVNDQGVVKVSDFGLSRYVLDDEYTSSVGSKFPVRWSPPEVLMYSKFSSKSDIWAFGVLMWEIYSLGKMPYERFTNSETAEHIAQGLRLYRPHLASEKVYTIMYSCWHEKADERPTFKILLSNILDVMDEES
Chain of BTK (C481S) (Q06187 whole entry C481S): as above
Chain of p-BTK (WT) (Q06187 whole entry): as the sequence (Q06187 whole entry C481S) above, with S481C counted along it
Chain of BTK (Q06187 whole entry): as the sequence (Q06187 whole entry C481S) above, with S481C counted along it

Row | IC50 (OCI-LY10 cells) [nM] | IC50 (p-BTK (C481S)) [nM] | IC50 (BTK) [nM] | IC50 (BTK (C481S)) [nM] | IC50 (p-BTK (WT)) [nM] | Structure (SMILES) | IC50 (TMD-8 cells) [nM]
1 | 200 | 50 | 19 | 9.2 | 29.2 | CN1CC[C@]2(C1)Nc1c(cnc3[nH]cc(C(=O)c4ccc(Oc5ccccc5)cc4Cl)c13)NC2=O (single isomer, unassigned) [Z2-1] | 123
2 | 307 | 56.6 | 25.4 | 10.9 | 41.5 | CN1CC[C@@]2(C1)Nc1c(cnc3[nH]cc(C(=O)c4ccc(Oc5ccccc5)cc4Cl)c13)NC2=O (single isomer, unassigned) [Z2-2] | 266
3 | 238 | 72.8 | 19.4 | 12.3 | 123 | CN1CCC2(C1)Nc1c(cnc3[nH]cc(C(=O)c4ccc(Oc5ccccc5)cc4Cl)c13)NC2=O (stereo not drawn) [Z2] | 188
